{"source": "paper PMC4972573", "about": "(Nature structural & molecular biology, 2013)", "molecular_target": "GluK2 Y521C L783C (Rattus norvegicus, UniProt P42260, Y521C/L783C)", "sequence (P42260 32-908 Y521C/L783C)": "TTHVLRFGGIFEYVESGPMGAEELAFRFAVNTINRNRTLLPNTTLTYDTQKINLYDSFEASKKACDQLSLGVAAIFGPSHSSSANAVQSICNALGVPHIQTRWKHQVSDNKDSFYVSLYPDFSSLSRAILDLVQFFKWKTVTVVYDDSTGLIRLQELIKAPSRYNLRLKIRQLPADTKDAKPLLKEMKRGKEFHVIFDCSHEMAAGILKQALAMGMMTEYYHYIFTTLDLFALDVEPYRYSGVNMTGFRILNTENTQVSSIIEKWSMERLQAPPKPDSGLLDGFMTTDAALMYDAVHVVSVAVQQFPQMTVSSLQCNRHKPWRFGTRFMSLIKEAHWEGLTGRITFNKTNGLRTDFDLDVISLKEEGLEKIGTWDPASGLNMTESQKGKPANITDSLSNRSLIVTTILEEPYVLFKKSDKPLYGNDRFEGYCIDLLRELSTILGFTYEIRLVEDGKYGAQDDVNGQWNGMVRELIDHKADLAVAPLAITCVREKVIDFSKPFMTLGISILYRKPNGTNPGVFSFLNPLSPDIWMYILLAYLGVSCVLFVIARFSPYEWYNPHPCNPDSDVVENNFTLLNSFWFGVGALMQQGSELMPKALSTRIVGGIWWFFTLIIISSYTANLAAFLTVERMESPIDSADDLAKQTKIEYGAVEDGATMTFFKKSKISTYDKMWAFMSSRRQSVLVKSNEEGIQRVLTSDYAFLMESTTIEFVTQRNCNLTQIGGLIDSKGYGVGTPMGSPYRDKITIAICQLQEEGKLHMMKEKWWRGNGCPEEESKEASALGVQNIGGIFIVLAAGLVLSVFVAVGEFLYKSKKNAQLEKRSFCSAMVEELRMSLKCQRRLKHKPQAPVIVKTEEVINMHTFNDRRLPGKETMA", "assay": "outside-out patch single-channel and macroscopic currents", "assay_type": "cell-based", "data": [{"molecule": "N[C@@H](CCC(=O)O)C(=O)O", "note": "[L-Glu]", "values": [{"measurement": "outside-out patch single-channel and macroscopic currents", "result": "Unitary current events elicited by L-Glu acting on Y521C L783C channels"}]}]}
